In patent US9926297B2, “Bicyclic AZA compounds as muscarinic M1 receptor and/or M4 receptor agonists” (Heptares Therapeutics Limited, priority 2014, dated 2018):
Read-outs that look alike come from different tables or passages of the source.

What was measured:
[1] = molecular target: T1, human muscarinic M1 receptor (Homo sapiens, UniProt P11229); test: Alphascreen Surefire phospho-ERK1/2 functional assay, M1; format: cell-based; conditions: for EC50: CHO cells stably expressing human M1, phospho-ERK1/2, * = variable results, read-out: pEC50 M1 (converted); for Emax: CHO
T1 sequence (P11229 1-460): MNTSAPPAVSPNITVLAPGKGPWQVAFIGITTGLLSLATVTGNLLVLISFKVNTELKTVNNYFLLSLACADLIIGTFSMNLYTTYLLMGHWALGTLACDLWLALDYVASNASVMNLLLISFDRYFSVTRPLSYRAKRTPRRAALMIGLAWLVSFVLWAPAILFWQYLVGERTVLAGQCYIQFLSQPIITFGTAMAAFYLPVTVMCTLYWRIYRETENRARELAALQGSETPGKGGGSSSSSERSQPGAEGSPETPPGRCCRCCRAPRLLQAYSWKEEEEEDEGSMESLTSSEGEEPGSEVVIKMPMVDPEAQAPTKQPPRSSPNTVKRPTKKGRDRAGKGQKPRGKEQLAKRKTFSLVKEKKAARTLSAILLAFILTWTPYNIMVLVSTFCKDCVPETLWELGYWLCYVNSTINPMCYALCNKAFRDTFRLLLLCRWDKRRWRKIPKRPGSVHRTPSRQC

[2] = molecular target: T2, human muscarinic M4 receptor (Homo sapiens, UniProt P08173); test: Alphascreen Surefire phospho-ERK1/2 functional assay, M4; format: cell-based; conditions: for EC50: CHO cells stably expressing human M4, phospho-ERK1/2, * = variable results, read-out: pEC50 M4 (converted); for Emax: CHO
T2 construct: expressed in transfected cells
T2 sequence (P08173 1-479): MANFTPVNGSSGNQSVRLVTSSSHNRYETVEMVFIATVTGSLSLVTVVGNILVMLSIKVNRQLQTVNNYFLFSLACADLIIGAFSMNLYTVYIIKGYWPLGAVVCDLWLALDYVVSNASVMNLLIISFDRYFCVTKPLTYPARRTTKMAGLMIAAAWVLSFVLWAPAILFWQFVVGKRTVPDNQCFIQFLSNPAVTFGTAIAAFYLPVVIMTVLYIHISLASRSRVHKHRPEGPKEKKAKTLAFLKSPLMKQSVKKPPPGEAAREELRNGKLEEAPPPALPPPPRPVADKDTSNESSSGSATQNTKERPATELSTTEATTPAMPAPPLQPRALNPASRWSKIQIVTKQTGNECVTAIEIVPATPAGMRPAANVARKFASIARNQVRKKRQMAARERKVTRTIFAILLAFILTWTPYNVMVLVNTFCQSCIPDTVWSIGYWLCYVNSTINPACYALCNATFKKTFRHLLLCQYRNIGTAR

[3] = molecular target: T3, human muscarinic M2 receptor (Homo sapiens, UniProt P08172); test: Alphascreen Surefire phospho-ERK1/2 functional assay, M2; conditions: for Emax: CHO, read-out: % Emax cf. ACh, M2, CHO cells stably expressing human M2, relative to ACh
T3 sequence (P08172 1-466): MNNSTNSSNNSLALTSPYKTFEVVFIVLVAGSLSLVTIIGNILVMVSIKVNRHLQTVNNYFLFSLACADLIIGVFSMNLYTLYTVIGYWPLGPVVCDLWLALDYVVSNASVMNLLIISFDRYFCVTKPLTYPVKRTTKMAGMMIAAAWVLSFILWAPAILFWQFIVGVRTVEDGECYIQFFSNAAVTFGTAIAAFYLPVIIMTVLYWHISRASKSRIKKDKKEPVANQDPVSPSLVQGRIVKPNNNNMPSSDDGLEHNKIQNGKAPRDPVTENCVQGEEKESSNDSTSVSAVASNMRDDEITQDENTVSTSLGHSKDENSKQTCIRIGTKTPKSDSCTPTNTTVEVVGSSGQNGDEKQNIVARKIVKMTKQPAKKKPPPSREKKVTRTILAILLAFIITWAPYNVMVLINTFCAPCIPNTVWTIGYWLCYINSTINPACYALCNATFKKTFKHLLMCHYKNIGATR

[4] = molecular target: human muscarinic M3 receptor (Homo sapiens, UniProt P20309); test: Alphascreen Surefire phospho-ERK1/2 functional assay, M3; conditions: for Emax: CHO, read-out: % Emax cf. ACh, M3, CHO cells stably expressing human M3, relative to ACh; for EC50: pEC50 M3, CHO cells stably expressing human M3, phospho-ERK1/2, * = variable results
[5] = read-out: % Emax cf. ACh, M1, CHO cells stably expressing human M1, relative to ACh
[6] = read-out: % Emax cf. ACh, M4, CHO cells stably expressing human M4, relative to ACh

human muscarinic M3 receptor, sequence (P20309 whole entry): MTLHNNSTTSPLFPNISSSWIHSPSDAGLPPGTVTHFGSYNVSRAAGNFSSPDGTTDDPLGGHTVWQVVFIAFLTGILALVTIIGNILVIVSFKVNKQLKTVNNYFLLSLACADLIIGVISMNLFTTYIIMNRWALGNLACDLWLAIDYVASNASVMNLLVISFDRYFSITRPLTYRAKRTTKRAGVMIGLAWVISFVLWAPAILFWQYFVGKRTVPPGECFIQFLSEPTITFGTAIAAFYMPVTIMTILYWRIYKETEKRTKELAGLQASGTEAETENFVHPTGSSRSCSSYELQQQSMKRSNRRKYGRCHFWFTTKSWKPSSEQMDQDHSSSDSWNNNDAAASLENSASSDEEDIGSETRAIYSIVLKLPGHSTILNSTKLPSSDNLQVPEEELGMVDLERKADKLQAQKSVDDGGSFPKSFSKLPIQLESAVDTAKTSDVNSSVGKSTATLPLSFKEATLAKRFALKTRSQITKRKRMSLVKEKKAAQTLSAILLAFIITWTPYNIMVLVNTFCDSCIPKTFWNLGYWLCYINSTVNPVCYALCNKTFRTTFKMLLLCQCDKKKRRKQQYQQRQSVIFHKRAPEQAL

| SMILES | EC50 [1] | Emax [1, 5] | EC50 [2] | Emax [2, 6] | EC50 [3] | Emax [3] | Emax [4] | EC50 [4] | Emax ([1]; read-out: % Emax cf. ACh, M1) | Emax ([2]; read-out: % Emax cf. ACh, M4) |
| --- | --- | --- | --- | --- | --- | --- | --- | --- | --- | --- |
| CCOC(=O)N1CCC2(CC(N3CCC([C@@H]4CCCN4C(=O)N4CC(F)(F)C4)CC3)C2)C1 (single isomer, unassigned) [2-39 Isomer 2] | 2510 nM | 41% | 15.8 nM | 76% | > 20000 nM | 1% | 1% | > 20000 nM |  |  |
| CCOC(=O)N1CCC2(CC(N3CCC([C@@H]4CCCN4c4ccccc4)CC3)C2)C1 (single isomer, unassigned) [2-77 Isomer 2] | 251 nM | 51% | 6.31 nM | 105% | > 20000 nM | 14% | 47% | > 20000 nM |  |  |
| CCOC(=O)N1CCC2(CC(N3CCC([C@@H]4CCCN4C(=O)N(C)C4COC4)CC3)C2)C1 (single isomer, unassigned) [2-57 Isomer 2] | > 20000 nM | 16% | 31.6 nM | 117% | > 20000 nM | 25% | 4% | > 20000 nM |  |  |
| COC(=O)N1CCC2(CC(N3CCC(n4ccc(C)n4)CC3)C2)C1 (single isomer, unassigned) [1-45 Isomer 2, methyl 2-[4-(3-methyl-1H-pyrazol-1-yl)piperidin-1-yl]-6-azaspiro[3.4]octane-6-carboxylate] | 316 nM | 80% | 20 nM | 80% | 1580 nM | 56% | 26% | > 20000 nM |  |  |
| CCOC(=O)N1CCC2(CC(N3CCC([C@@H]4CCCN4C(=S)CC)CC3)C2)C1 (single isomer, unassigned) [2-58 Isomer 2] | 1000 nM | 66% | 31.6 nM | 156% | > 20000 nM | 45% | 9% | > 20000 nM |  |  |
| CCOC(=O)N1CCC2(CC(N3CCC([C@@H]4CCCN4C(=O)CCNC(=O)OCc4ccccc4)CC3)C2)C1 (single isomer, unassigned) [2-65 Isomer 2] | 158 nM | 60% | 7.94 nM | 107% | > 20000 nM | 1% | 1% | > 20000 nM |  |  |
| CCOC(=O)N1CCC2(CC(N3CCC(C4CCCN4C(=O)NOC)CC3)C2)C1 (single isomer, unassigned) [2-24 Isomer 2, ethyl 2-{4-[1-(methoxycarbamoyl)pyrrolidin-2-yl]piperidin-1-yl}-6-azaspiro[3.4]octane-6-carboxylate] | 631 nM | 37% | 20 nM | 121% | > 20000 nM | 5% | 9% | > 20000 nM |  |  |
| CCOC(=O)N1CCC2(CC(N3CCC(c4nc(C(F)(F)F)cn4C)CC3)C2)C1 (single isomer, unassigned) [1-15 Isomer 2, ethyl 2-{4-[1-methyl-4-(trifluoromethyl)-1H-imidazol-2-yl]piperidin-1-yl}-6-azaspiro[3.4]octane-6-carboxylate] | 100 nM | 70% |  |  | > 20000 nM | 4% | 6% | > 20000 nM |  |  |
| CCOC(=O)N1CCC2(CC(N3CCC(c4nccn4CCOC)CC3)C2)C1 (single isomer, unassigned) [1-51 Isomer 2, ethyl 2-{4-[1-(2-methoxyethyl)-1H-imidazol-2-yl]piperidin-1-yl}-6-azaspiro[3.4]octane-6-carboxylate] | 1260 nM | 74% | 158 nM | 106% |  |  |  |  |  |  |
| [2H]C([2H])([2H])C([2H])([2H])OC(=O)N1CCC2(CC(N3CCC(n4cccn4)CC3)C2)C1 (single isomer, unassigned) [1-70 Isomer 2, (^2H5)ethyl 2-[4-(1H-pyrazol-1-yl)piperidin-1-yl]-6-azaspiro[3.4]octane-6-carboxylate] | 79.4 nM | 92% | 5.01 nM | 101% |  |  |  |  |  |  |
| [2H]C([2H])([2H])COC(=O)N1CCC2(CC(N3CCC(n4cccn4)CC3)C2)C1 (single isomer, unassigned) [1-69 Isomer 2, (2,2,2-^2H3)ethyl 2-[4-(1H-pyrazol-1-yl)piperidin-1-yl]-6-azaspiro[3.4]octane-6-carboxylate] | 79.4 nM | 99% | 5.01 nM | 104% |  |  |  |  |  |  |
| CCOC(=O)N1CCC2(CC(N3CCC(C)(c4nc(C)no4)CC3)C2)C1 (single isomer, unassigned) [1-41 Isomer 2, ethyl 2-[4-methyl-4-(3-methyl-1,2,4-oxadiazol-5-yl)piperidin-1-yl]-6-azaspiro[3.4]octane-6-carboxylate] | 1000 nM |  | 251 nM |  |  |  |  |  | 52% | 35% |

Further lines, with some results ahead:

| EC50 [1] | Emax [1, 5] | EC50 [2] | Emax [2, 6] | EC50 [3] | Emax [3] | Emax [4] | EC50 [4] | SMILES | Emax ([1]; read-out: % Emax cf. ACh, M1) | Emax ([2]; read-out: % Emax cf. ACh, M4) |
| --- | --- | --- | --- | --- | --- | --- | --- | --- | --- | --- |
| 1000 nM | 58% | 50.1 nM | 96% | > 20000 nM | 5% | 4% | > 20000 nM | CCOC(=O)N1CCC2(CC(N3CCC(N4CCCCCC4C(=O)OC)CC3)C2)C1 (single isomer, unassigned) [5-2 Isomer 2, ethyl 2-{4-[2-(methoxycarbonyl)azepan-1-yl]piperidin-1-yl}-6-azaspiro[3.4]octane-6-carboxylate] |  |  |
| 158 nM | 103% | 12.6 nM | 88% | > 20000 nM | 9% | 4% | > 20000 nM | CCOC(=O)N1CCC2(CC(N3CCC(C4C(=O)NCCC4C)CC3)C2)C1 (single isomer, unassigned) [4-3 Isomer 2, ethyl 2-(4-methyl-2-oxo-3,4′-bipiperidin-1′-yl)-6-azaspiro[3.4]octane-6-carboxylate] |  |  |
| > 20000 nM | 18% | 12.6 nM | 72% |  |  |  |  | CCOC(=O)N1CCC2(CC(N3CCC(N4CCC[C@@H]4c4nccs4)CC3)C2)C1 (single isomer, unassigned) [2-132 Isomer 2] |  |  |
| 3160 nM | 76% | 631 nM | 79% |  |  |  |  | CCOC(=O)N1CCC2(CC(N3CCC(N4CCCC[C@H]4C(=O)NC)CC3)C2)C1 (single isomer, unassigned) [4-18 Isomer 2] |  |  |
| 10000 nM | 89% | 1580 nM | 104% |  |  |  |  | CCOC(=O)N1CCC2(CC(N3CCC(N4CCCC4c4nnn[nH]4)CC3)C2)C1 (single isomer, unassigned) [2-128 Isomer 2, ethyl 2-{4-[2-(1H-tetrazol-5-yl)pyrrolidin-1-yl]piperidin-1-yl}-6-azaspiro[3.4]octane-6-carboxylate] |  |  |
| 2510 nM | 66% | > 20000 nM | 3% |  |  |  |  | CCOC(=O)N1CCC2(CC(N3CCC(N4CCC[C@H]4C(=O)NC)CC3)C2)C1 (single isomer, unassigned) [2-85 Isomer 2] |  |  |
| 794 nM | 94% | 79.4 nM | 42% |  |  |  |  | COC(=O)N1CCC2(CC(N3CCC(C4CCCNC4=O)CC3)C2)C1 (single isomer, unassigned) [4-2 Isomer 4, methyl 2-(2-oxo-3,4′-bipiperidin-1′-yl)-6-azaspiro[3.4]octane-6-carboxylate] |  |  |
